“Also recorded” adds a separate entry of the source.
Legend:
[1] = test system: gamma knife irradiation induced focal radiation-induced brain injury (brain lesions); assay: Brain lesion volume by MRI, gamma knife irradiation induced focal radiation-induced brain injury in C57BL/6 mice; type: in vivo
Experimental: (§1) The coordinates of the irradiation center positioning point were: 2 mm behind the anterior fontanelle (AP), 2 mm left of the midline (L), and 2 mm below the skull dura mater (dorsal ventral DV).
Quantitative Analysis of Brain Lesion Volume Using Magnetic Resonance imaging (MRI)
Prior to detection, each mouse was injected with 200 μl of contrast agent solution at a concentration of approximately 48 mg/ml.

GFAP positive astrocytes = assay: GFAP immunofluorescence staining, activation of astrocytes in the thalamus of the lesion; type: in vivo, C57BL/6 mice
Excerpt: FIG. 3: YC-6 inhibited the activation of astrocytes after radiation-induced brain injury. Pannel A: GFAP immunofluorescence staining in the thalamus of the brain lesion, with a white ruler indicating […]. Pannel B: Counting GFAP positive cells in Pannel A, i.e., randomly selecting three fields of view in the brain slice injury lesion area and using Image J software to count GFAP positive cells in the selected fields as the number of GFAP positive cells per unit area, and taking the average value. **** represents P<0.0001, n=5.
as §1
(§2) Immunofluorescence Staining of GFAP, CC1, and MAG Proteins in Brain Slices

[2] = test system: CC1 positive oligodendrocytes; assay: CC1 immunofluorescence staining, mature oligodendrocytes in the thalamus of the lesion; type: in vivo, C57BL/6 mice
Excerpt: (§3) Pannel A: Immunofluorescence staining of CC1 and MAG in the thalamus of the brain lesion, with a white ruler indicating […]. Pannel B: Counting CC1 positive cells in Pannel A, i.e., randomly selecting three fields of view in the brain slice injury lesion area and using Image J software to count CC1 positive cells in the selected fields as the number of CC1 positive cells per unit area, and taking the average value. Pannel C: Statistical analysis of MAG immunofluorescence intensity in Pannel A, i.e., randomly selecting three fields of view in the brain slice injury lesion area and using Image J software to quantify the fluorescence signal intensity of MAG in the selected fields as the fluorescence intensity of MAG per unit pixel area, and taking the average value. **** represents P<0.0001, n=5.
as §1, §2

MAG = MAG immunofluorescence intensity in the thalamus of the lesion; type: in vivo, C57BL/6 mice
Excerpt: as §3, §1, §2

[3] = test system: radiation-induced brain injury; conditions: patients treated with bevacizumab; cited from earlier work
[4] = test system: blood-brain barrier and microvessels; conditions: animals; cited from earlier work
[5] = YC-6 administration for 8 weeks

In the case of `C[C@@]12CCCC1C1C[C@@H](O)[C@@]3(O)C[C@@H](O)CC[C@]3(C)C1CC2` (stereo partly drawn) [YC-6, 5α-androst-3β,5,6β-triol], the “volume of brain lesions (in words)” value ([1]; 60 mg/kg/d for 2 weeks, followed by discontinuation until week 8) is reported as “significantly reduced the volume of brain lesions; also recorded: significantly reducing lesion volume”, the “volume of brain lesions (in words)” value ([1]; full 8-week administration, compared to 2-week administration) is reported as “showed a trend towards further reducing the volume of brain lesions; also recorded: showed a better trend in reducing lesion volume compared to short-term administration” and the “Number of astrocytes (GFAP positive)” value (GFAP positive astrocytes; 60 mg/kg/d for 8 weeks, 8 weeks after gamma knife radiation, Mean ± SEM, n=5, P < 0.0001 vs RBI + Saline (558.20 ± 10.07), Control + Saline 57.80 ± 2.69) is reported as 357.00 ± 10.61 Astrocytes/mm^2. For the same molecule, the “activation of astrocytes (in words)” value (GFAP positive astrocytes; [5]) was “significantly inhibited the activation of astrocytes”, the “Number of mature oligodendrocytes (CC1 positive)” value ([2]; 60 mg/kg/d for 8 weeks, 8 weeks after gamma knife radiation, Mean ± SEM, n=5, P < 0.0001 vs RBI + Saline (200.60 ± 21.47), Control + Saline 1608.00 ± 47.92) was 506.40 ± 30.48 Oligodendrocytes/mm^2 and the “reduction of oligodendrocytes (in words)” value [2, 5] was “significantly inhibited the reduction of oligodendrocytes”. The “MAG fluorescence signal intensity” value (MAG; 60 mg/kg/d for 8 weeks, 8 weeks after gamma knife radiation, Mean ± SEM, n=5, P < 0.0001 vs RBI + Saline (0.31 ± 0.018), Control + Saline 1.04 ± 0.047) was 0.44 ± 0.018 and the “MAG level (in words)” value (MAG; [5]) was “restored MAG level”.

For “bevacizumab: bevacizumab, used in a randomized double-blind placebo-controlled study in 2011”, the neurological function [3] is given as “significant improvement in neurological function” and the “reduction in brain injury lesions” value [3] is given as “varying degrees of reduction in brain injury lesions”.

B1: mouse nerve growth factor for injection: mouse nerve growth factor for injection (protein, UniProt P01139 122-241, looked up)
Beta-nerve growth factor: SSTHPVFHMGEFSVCDSVSVWVGDKTTATDIKGKEVTVLAEVNINNSVFRQYFFETKCRASNPVESGCRGIDSKHWNSYCTTTHTFVKALTTDEKQAAWRFIRIDTACVCVLSRKATRRG
For B1, the “damage to the blood-brain barrier and repair of microvessels” value [4] is listed as “can alleviate damage to the blood-brain barrier and repair microvessels in animals”.
